Reference: ChEMBL document CHEMBL1201862, “PubChem BioAssay data set” (2004)
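Assay format: 96-well plates, 48-hour exposure. GI50 is the concentration that inhibits growth by half.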 Activity calls are given as the source filed them. Cut-off read from the data, not from the text of the source: active = GI50 up to about 1.1 µM and inactive = higher.

How the values were obtained:
Experiment in all cases: inhibition of tumour cell growth, NCI panel, 48 h
[1] = system: NCI-H23
[2] = system: SF-295
[3] = system: A498
[4] = system: NCI-H460
[5] = system: SN12C
[6] = system: SK-OV-3
[7] = system: HOP-62
[8] = system: UACC-257
[9] = system: U-251
[10] = system: HCT-15
[11] = system: Malme-3M
[12] = system: HT-29
[13] = system: SW-620
[14] = system: SF-539
[15] = system: COLO 205
[16] = system: Hs-578T
[17] = system: SK-MEL-28
[18] = system: CCRF-CEM
[19] = system: K562
[20] = system: HL-60

| Structure (SMILES) | GI50 [1] | GI50 [2] | GI50 [3] | GI50 [4] | GI50 [5] | GI50 [6] | GI50 [7] | GI50 [8] | GI50 [9] | GI50 [10] | GI50 [11] | GI50 [12] | GI50 [13] | GI50 [14] | GI50 [15] | GI50 [16] | GI50 [17] | GI50 [18] | GI50 [19] | GI50 [20] |
| --- | --- | --- | --- | --- | --- | --- | --- | --- | --- | --- | --- | --- | --- | --- | --- | --- | --- | --- | --- | --- |
| NC(=O)c1csc(C2(O)COC(CO)C2O)n1 (stereo not drawn) | > 100 µM (inactive) | > 100 µM (inactive) | > 100 µM (inactive) | > 100 µM (inactive) | > 100 µM (inactive) | > 100 µM (inactive) | > 100 µM (inactive) | > 100 µM (inactive) | > 100 µM (inactive) | > 100 µM | > 100 µM (inactive) | > 100 µM (inactive) | > 100 µM (inactive) | > 100 µM (inactive) | > 100 µM (inactive) | > 100 µM (inactive) | > 100 µM (inactive) | > 100 µM (inactive) |  |  |
| CC(O)(CCCCCl)c1nc2ccccc2s1 (stereo not drawn) | > 100 µM (inactive) | > 100 µM (inactive) | > 100 µM (inactive) |  | > 100 µM (inactive) | > 100 µM (inactive) | > 100 µM (inactive) | > 100 µM (inactive) | 85.5 µM (inactive) | > 100 µM |  | 65.9 µM (inactive) | > 100 µM (inactive) | > 100 µM (inactive) | > 100 µM (inactive) | > 100 µM (inactive) | > 100 µM (inactive) | > 100 µM (inactive) | 89.9 µM (inactive) | 60.4 µM (inactive) |
| O=C(OC[C@H]1C[C@H]2C(=O)OCCC[C@H]2O1)c1ccccc1 | > 100 µM (inactive) | > 100 µM (inactive) | > 100 µM (inactive) | > 100 µM (inactive) | > 100 µM (inactive) | > 100 µM (inactive) | > 100 µM (inactive) | > 100 µM (inactive) | > 100 µM (inactive) | > 100 µM |  | > 100 µM (inactive) | > 100 µM (inactive) |  | > 100 µM (inactive) | > 100 µM (inactive) | > 100 µM (inactive) | > 100 µM (inactive) | > 100 µM (inactive) | > 100 µM (inactive) |
| CCOc1ccc(N/C(=C(/C(Cl)=C(/Cl)N(CC)CC)[N+](=O)[O-])n2nnc3ccccc32)cc1 | 17.2 µM (inactive) | 30.6 µM (inactive) | 15 µM (inactive) | 56.5 µM (inactive) | 21.6 µM (inactive) | 56.1 µM (inactive) | 30.7 µM (inactive) | 38.7 µM (inactive) | 14 µM (inactive) | 19.1 µM | 17.9 µM (inactive) | 26.4 µM (inactive) | 14.2 µM (inactive) | 23.2 µM (inactive) | 21.6 µM (inactive) | 47.6 µM (inactive) | 20 µM (inactive) | 19.8 µM (inactive) | > 100 µM (inactive) |  |
| Nc1nc(-c2ccccc2/N=N/N2CCCC2)nc2ccccc12 | 2.2 µM (inactive) | 2.32 µM (inactive) | 7.76 µM (inactive) | 2.92 µM (inactive) | 1.59 µM (inactive) | 9.1 µM (inactive) | 1.73 µM (inactive) | 3.51 µM (inactive) | 2.67 µM (inactive) | 2.7 µM | 3.28 µM (inactive) | 2.38 µM (inactive) | 1.74 µM (inactive) | 2.39 µM (inactive) | 2.56 µM (inactive) | 3.39 µM (inactive) | 12.2 µM (inactive) | 3.07 µM (inactive) | 3.05 µM (inactive) |  |
| C=C[C@]1(O[Si](C)(C)C)C[C@@]2(C(=O)OCC)C(O)C(=O)N3CCc4cc(OC)c(OC)cc4[C@]312 (stereo partly drawn) | > 100 µM (inactive) | > 100 µM (inactive) | 40.9 µM (inactive) | > 100 µM (inactive) | > 100 µM (inactive) | > 100 µM (inactive) | > 100 µM (inactive) | > 100 µM (inactive) | > 100 µM (inactive) | > 100 µM | > 100 µM (inactive) | > 100 µM (inactive) | > 100 µM (inactive) | > 100 µM (inactive) | > 100 µM (inactive) | 31.3 µM (inactive) | > 100 µM (inactive) | > 100 µM (inactive) | > 100 µM (inactive) |  |
| [O-][Cl+3]([O-])([O-])[O-].[O-][Cl+3]([O-])([O-])[O-].c1ccn2c(N3CCOCC3)[n+]3c4ccccc4[n+]4c(N5CCOCC5)n5ccccc5c4c3c2c1 | > 100 µM (inactive) | > 100 µM (inactive) | > 100 µM (inactive) | > 100 µM (inactive) | 17.7 µM (inactive) |  |  | 68.9 µM (inactive) | 50.6 µM (inactive) | > 100 µM | 66.2 µM (inactive) |  | > 100 µM (inactive) | 65.3 µM (inactive) | 49.9 µM (inactive) | 33.7 µM (inactive) | > 100 µM (inactive) | > 100 µM (inactive) | > 100 µM (inactive) | 71.6 µM (inactive) |
